Laboratory results from patent US20050049197A1, “Induction of immune response against desired determinants” (Epimmune Inc., priority 1993, published 2005).
Several values for one entry are separate records, joined by “and”; a condition that tells them apart may be missing. Identical values can stand only once. Non-standard residues stand in square brackets, D forms with d. Residues, ends and D or L forms follow the SMILES beside them. Cha = N[C@@H](CC1CCCCC1)C(=O)O

Columns and labels:
[1] = test system: DR2w2b; design: species or system human; conditions: read-out: Binding Activity DR2wB2, IC50
[2] = test system: DR3; design: species or system human; conditions: read-out: Binding Activity DR3, IC50
[3] = test system: PBMC from normal individuals; assay: In vitro T cell proliferative responses of human PBMC ([3H]thymidine incorporation); format: cell-based; conditions: for AVERAGE S.I. / AVERAGE ΔMAX CPM: average of 5 donors; for X144 (Δmax cpm) / X144 S.I.: donor X144; for X162 (Δmax cpm) / X162 S.I.: donor X162; for X349 (Δmax cpm) / X349 S.I.: donor X349; for X372 (Δmax cpm) / X372 S.I.: donor X372; for X460 (Δmax cpm) / X460 S.I.: donor X460
[4] = test system: DR5; design: species or system human; conditions: read-out: Binding Activity DR5, IC50
[5] = test system: DQ3.1; design: species or system human; conditions: read-out: Binding Activity DQ3.1, IC50
[6] = test system: P. yoelii sporozoites; assay: Inhibition of liver stage development assay (ILSDA), mouse hepatocytes infected with P. yoelii sporozoites; format: cell-based; conditions: sera of immunized mice; for % Inhibition / Mean schizonts/well + S.D.: mouse hepatocytes
Description: (§1) In certain experiments, peptides were emulsified in complete Freund's adjuvant (CFA) and injected subcutaneously (S.C.) at the base of the tail in 100 μl volume containing 100 μg of peptide. Mice were boosted with 100 μg of peptide emulsified in 100 μl of incomplete Freund's adjuvant (IFA) 1 month later. Mice were bled just prior to boosting, and 2 weeks after boosting.
All cell culture reagents were obtained from quality Biological, Gaithersburg, Md. The slides were incubated overnight at 37° C. in a 5% CO2/95% air environment. The medium was changed the following day and fresh medium containing dexamethasone (7×10^−5) was added to the cultures.
(§2) The 17XNL (nonlethal) strain of P. yoelii or the NF54 strain of P. falciparum were used for murine and human hepatocyte in vitro infections, respectively.
(§3) Briefly, 25 μl of the serum samples, diluted to 2× their final concentration, were added to triplicate chamber-slide wells. P. yoeilli or P. falciparum sporozoites, 75,000/well, were then added in a volume of 25 μl to the mouse or human hepatocyte cultures respectively. The cultures were incubated for 3 h, then washed extensively with fresh medium to remove unattached sporozoites. The infected hepatocytes were then incubated for a further 2 (P. yoelii) or 5 days (P. falciparum) with the medium being changed each day of culture. The slides were fixed and immunostained with either a P. yoelii- or P. falciparum-specific monoclonal antibody. Schizonts were counted from the triplicate cultures and the percent inhibition determined as follows: control−test/control×100. Sera from mice injected with CFA (first dose) and IFA (second and third doses) served as the negative controls.

[7] = molecular target: DRw53 (Homo sapiens, UniProt P01903+P13762); assay: biochemical; format: binding
[8] = test system: P. falciparum sporozoites; assay: Inhibition of liver stage development assay (ILSDA), human hepatocytes infected with P. falciparum sporozoites; format: cell-based; conditions: sera of C57BL/6 mice immunized with peptide in CFA/IFA, final dilution 1:100
Description: as §1
Human hepatocytes were isolated from nontransplantable liver tissue donated for research. […] The hepatocytes were allowed to attach and spread overnight with the media being changed the following day.
as §2, §3

DRw53, sequence (P01903 26-254): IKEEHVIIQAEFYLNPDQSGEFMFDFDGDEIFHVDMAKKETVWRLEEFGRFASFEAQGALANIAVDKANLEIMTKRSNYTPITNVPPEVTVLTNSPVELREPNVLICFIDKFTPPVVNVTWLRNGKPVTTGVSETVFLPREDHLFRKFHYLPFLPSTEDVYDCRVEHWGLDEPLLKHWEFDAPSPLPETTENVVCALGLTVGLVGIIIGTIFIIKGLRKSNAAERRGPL
DRw53, sequence (P13762 30-266): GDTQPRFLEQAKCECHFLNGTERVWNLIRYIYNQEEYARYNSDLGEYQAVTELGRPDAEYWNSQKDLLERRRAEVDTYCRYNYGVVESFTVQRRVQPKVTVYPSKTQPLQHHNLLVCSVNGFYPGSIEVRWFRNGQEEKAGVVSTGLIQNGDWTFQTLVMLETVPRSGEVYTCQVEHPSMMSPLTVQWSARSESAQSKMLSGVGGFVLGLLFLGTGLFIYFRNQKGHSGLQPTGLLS

Row | Compound | IC50 [1] [nM] | AVERAGE S.I. ([3]; 2nd Stimulation) | AVERAGE ΔMAX CPM ([3]; 2nd Stimulation) [cpm] | X144 (Δmax cpm) ([3]; 2nd Stimulation) [cpm] | X144 S.I. ([3]; 2nd Stimulation) | X162 (Δmax cpm) ([3]; 2nd Stimulation) [cpm] | X162 S.I. ([3]; 2nd Stimulation) | X349 (Δmax cpm) ([3]; 2nd Stimulation) [cpm] | X349 S.I. ([3]; 2nd Stimulation) | X372 (Δmax cpm) ([3]; 2nd Stimulation) [cpm] | X372 S.I. ([3]; 2nd Stimulation) | X460 (Δmax cpm) ([3]; 2nd Stimulation) [cpm] | X460 S.I. ([3]; 2nd Stimulation) | AVERAGE S.I. ([3]; 3rd Stimulation) | AVERAGE ΔMAX CPM ([3]; 3rd Stimulation) [cpm] | X144 (Δmax cpm) ([3]; 3rd Stimulation) [cpm] | X144 S.I. ([3]; 3rd Stimulation) | X162 (Δmax cpm) ([3]; 3rd Stimulation) [cpm] | X162 S.I. ([3]; 3rd Stimulation) | X349 (Δmax cpm) ([3]; 3rd Stimulation) [cpm] | further results
1 | CC(C)C[C@H](NC(=O)[C@@H](NC(=O)[C@H](CC(N)=O)NC(=O)[C@H](C)NC(=O)[C@H](C)NC(=O)[C@@H](NC(=O)[C@H](CC1CCCCC1)NC(=O)[C@H](CCCCN)NC(=O)[C@@H](C)N)C(C)C)[C@@H](C)O)C(=O)N[C@@H](CCCCN)C(=O)N[C@@H](C)C(=O)N[C@@H](C)C(=O)N[C@H](C)C(N)=O [965.08] | 3.8 | 1.7 | 11208 | 8440 | 1.3 | 9234 | 2.6 | 9065 | 1.8 | 23017 | 1.6 | 6286 | 1.4 | 2 | 12070 | 3559 | 1.4 | 14622 | 2.3 | 31639 | IC50 [2]: 250 nM; X349 S.I. ([3]; 3rd Stimulation): 2.8; X372 (Δmax cpm) ([3]; 3rd Stimulation): 8710 cpm; X372 S.I. ([3]; 3rd Stimulation): 1.9; X460 (Δmax cpm) ([3]; 3rd Stimulation): 1820 cpm; X460 S.I. ([3]; 3rd Stimulation): 1.6; IC50 [4]: 8 nM; IC50 [5]: > 10000 nM
2 | CC(C)C[C@H](NC(=O)[C@@H](NC(=O)[C@H](Cc1c[nH]c2ccccc12)NC(=O)[C@H](C)NC(=O)[C@H](C)NC(=O)[C@@H](NC(=O)[C@H](CC1CCCCC1)NC(=O)[C@H](CCCCN)NC(=O)[C@@H](C)N)C(C)C)[C@@H](C)O)C(=O)N[C@@H](CCCCN)C(=O)N[C@@H](C)C(=O)N[C@H](C)C(=O)N[C@@H](CCC(N)=O)C(=O)NCC(=O)N1CCC[C@H]1C(=O)NCC(=O)N[C@@H](C)C(=O)N1CCC[C@H]1C(=O)N[C@@H](CCC(N)=O)C(=O)NCC(=O)N1CCC[C@H]1C(=O)NCC(=O)N[C@@H](C)C(=O)N1CCC[C@H]1C(=O)N[C@@H](CCC(N)=O)C(=O)NCC(=O)N1CCC[C@H]1C(=O)NCC(=O)N[C@@H](C)C(=O)N1CCC[C@H]1C(=O)N[C@@H](CCC(N)=O)C(=O)NCC(=O)N1CCC[C@H]1C(=O)NCC(=O)N[C@@H](C)C(=O)N1CCC[C@H]1C(=O)NCC(=O)NCC(=O)N[C@@H](CO)C(=O)O [PADRE ®-PyB, aKXVAAWTLKAa(QGPGAP)4GGS] (H-[dA]K[Cha]VAAWTLKA[dA]QGPGAPQGPGAPQGPGAPQGPGAPGGS-OH; N-terminus and C-terminus assumed) |  |  |  |  |  |  |  |  |  |  |  |  |  |  |  |  |  |  |  |  | inhibition of P. yoelii sporozoite invasion and development in murine hepatocytes ([6]; dilution not stated): approximately 90%
3 | CC(C)C[C@H](NC(=O)[C@@H](NC(=O)[C@H](C)NC(=O)[C@H](C)NC(=O)[C@H](C)NC(=O)[C@@H](NC(=O)[C@H](CC1CCCCC1)NC(=O)[C@H](CCCCN)NC(=O)[C@@H](C)N)C(C)C)[C@@H](C)O)C(=O)N[C@@H](CCCCN)C(=O)N[C@@H](C)C(=O)N[C@@H](C)C(=O)N[C@H](C)C(N)=O [965.16] | 6.1 | 1.3 | 1843 | 4388 | 1.2 | 4090 | 2.1 | 0 | 1 | 736 | 1 | 0 | 1 | 1.5 | 5955 | 5220 | 1.5 | 4762 | 1.9 | 9316 | X349 S.I. ([3]; 3rd Stimulation): 1.6; X372 (Δmax cpm) ([3]; 3rd Stimulation): 10439 cpm; X372 S.I. ([3]; 3rd Stimulation): 1.7; X460 (Δmax cpm) ([3]; 3rd Stimulation): 37 cpm; X460 S.I. ([3]; 3rd Stimulation): 1; IC50 [4]: 16.7 nM; IC50 [5]: > 10000 nM
4 | CC(C)C[C@H](NC(=O)[C@@H](NC(=O)[C@H](Cc1ccc(O)cc1)NC(=O)[C@H](C)NC(=O)[C@H](C)NC(=O)[C@@H](NC(=O)[C@H](CC1CCCCC1)NC(=O)[C@H](CCCCN)NC(=O)[C@@H](C)N)C(C)C)[C@@H](C)O)C(=O)N[C@@H](CCCCN)C(=O)N[C@@H](C)C(=O)N[C@@H](C)C(=O)N[C@H](C)C(N)=O [965.09] | 7.4 | 1.9 | 12059 | 13693 | 1.8 | 10710 | 1.1 | 18079 | 3.8 | 17813 | 1.6 | 0 | 1 | 4.1 | 22599 | 14087 | 2.6 | 35635 | 5.2 | 31811 | IC50 [7]: 86.4 nM; IC50 [2]: 250 nM; X349 S.I. ([3]; 3rd Stimulation): 5.5; X372 (Δmax cpm) ([3]; 3rd Stimulation): 29159 cpm; X372 S.I. ([3]; 3rd Stimulation): 4.4; X460 (Δmax cpm) ([3]; 3rd Stimulation): 2301 cpm; X460 S.I. ([3]; 3rd Stimulation): 2.9; IC50 [4]: 5.4 nM; IC50 [5]: > 10000 nM
5 | CC(C)C[C@H](NC(=O)[C@@H](NC(=O)[C@H](Cc1c[nH]c2ccccc12)NC(=O)[C@H](C)NC(=O)[C@H](C)NC(=O)[C@@H](NC(=O)[C@H](CC1CCCCC1)NC(=O)[C@H](CCCCN)NC(=O)[C@H](C)N)C(C)C)[C@@H](C)O)C(=O)N[C@@H](CCCCN)C(=O)N[C@@H](C)C(=O)N[C@@H](C)C(=O)N[C@@H](C)C(N)=O [965.17] | 5.9 | 2.4 | 12738 | 17391 | 1.7 | 6323 | 2 | 26512 | 5.6 | 8471 | 1.3 | 4994 | 1.3 | 3.5 | 25399 | 32665 | 4.1 | 28065 | 4.1 | 31983 | IC50 [7]: 170 nM; X349 S.I. ([3]; 3rd Stimulation): 4; X372 (Δmax cpm) ([3]; 3rd Stimulation): 30661 cpm; X372 S.I. ([3]; 3rd Stimulation): 3.2; X460 (Δmax cpm) ([3]; 3rd Stimulation): 3619 cpm; X460 S.I. ([3]; 3rd Stimulation): 2.2; IC50 [5]: > 10000 nM
6 | (NANP)4 [PfB] |  |  |  |  |  |  |  |  |  |  |  |  |  |  |  |  |  |  |  |  | % Inhibition ([6]; dilution 1:100): 13.4%; Mean schizonts/well + S.D. ([6]; dilution 1:100): 71 ± 7 schizonts/well; % Inhibition ([6]; dilution 1:200): 6.2%; Mean schizonts/well + S.D. ([6]; dilution 1:200): 76 ± 7 schizonts/well; % Inhibition [8]: 80% and 79.7%; Mean schizonts/well ± S.D. [8]: 15.6 ± 8.7 schizonts/well
7 | CC(C)C[C@H](NC(=O)[C@@H](NC(=O)[C@H](Cc1c[nH]cn1)NC(=O)[C@H](C)NC(=O)[C@H](C)NC(=O)[C@@H](NC(=O)[C@H](CC1CCCCC1)NC(=O)[C@H](CCCCN)NC(=O)[C@@H](C)N)C(C)C)[C@@H](C)O)C(=O)N[C@@H](CCCCN)C(=O)N[C@@H](C)C(=O)N[C@@H](C)C(=O)N[C@H](C)C(N)=O [965.15] | 5.4 | 1.8 | 7920 | 7179 | 1.4 | 8461 | 3.4 | 10848 | 1.8 | 10011 | 1.3 | 3100 | 1.2 | 2.5 | 15462 | 13055 | 2.4 | 12309 | 1.6 | 20653 | IC50 [7]: 79.2 nM; IC50 [2]: 1390 nM; X349 S.I. ([3]; 3rd Stimulation): 2.4; X372 (Δmax cpm) ([3]; 3rd Stimulation): 30810 cpm; X372 S.I. ([3]; 3rd Stimulation): 4.7; X460 (Δmax cpm) ([3]; 3rd Stimulation): 486 cpm; X460 S.I. ([3]; 3rd Stimulation): 1.2; IC50 [4]: 29.9 nM; IC50 [5]: > 10000 nM
